According to patent US20260199323A1, “LIGAND COMPOUNDS FOR E3 UBIQUITIN LIGASE, PROTEIN DEGRADERS DEVELOPED ON BASIS OF LIGAND COMPOUNDS, AND USES THEREOF” (GLUETACS THERAPEUTICS (SHANGHAI) CO., LTD., priority 2021, published 2026):
Like-named read-outs stand apart in the source and are kept apart here.

How the values were obtained:
SW620 = assay: CCK-8 tumor cell proliferation, SW620; assay type: cell-based, Human; conditions: Homo sapiens, SW-620; Table 18, FAK inhibitor based; SW620; read-out: IC50 inhibiting proliferation of tumor cells, SW620
Summary of the method: (§1)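 Viability determined colorimetrically with CCK-8 following compound treatment. Dosing began 24 h post-plating using ten 5-fold dilutions capped at 10 μM; growth-inhibition curves yielded IC50.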

Vcap = assay: CCK-8 tumor cell proliferation, Vcap; assay type: cell-based, Human; conditions: for IC50: Homo sapiens, VCaP
Experimental: (§2) The tumor cells used herein were cultured in a cell culture medium listed in table 4 at 37° C. in an incubator with 5% CO2. Prior to experimentation, all cells used were correctly identified by STR profiling, and tested negative for mycoplasma through routine screenings.
(§3) IC50 values of the compounds of the present disclosure (including the compounds in Tables 1 and 3, and compounds of examples) were measured using the Meilun Cell Counting Kit-8 kit from Dalian Meilun Biotech Co., Ltd. Assay details are as follows: tumor cells were seeded in a 96-well plate at a density listed in Table 5. After 24 h, 100 μL of the inoculated cells were treated with 0.5 μL of the compounds of the present disclosure (including the compounds in Tables 1 and 3, and compounds of examples) at 10 different successively decreasing concentrations (starting at the highest concentration of 10 μM; 5-fold serial dilutions). After the cells were treated with the compounds of the present disclosure for a period of time, the cell viability detection reagent was added to the culture medium for cell viability assessment according to the instructions provided with the CCK-8 kit. […] The growth inhibition of the compounds of the present disclosure on cells was plotted by Prism Graphpad software, and the IC50 values of the compounds of the present disclosure were calculated therefrom.

MGC-803 = assay: CCK-8 tumor cell proliferation, MGC-803; conditions: Homo sapiens, Table 18, FAK inhibitor based, MGC803, read-out: IC50 inhibiting proliferation of tumor cells, MGC803
Experimental: as §2, §3

CAL-62 = assay: CCK-8 tumor cell proliferation, CAL-62; assay type: cell-based, Human; conditions: Homo sapiens; Table 18, FAK inhibitor based; CAL-62; read-out: IC50 inhibiting proliferation of tumor cells, CAL-62
Summary of the method: as §1

Hep3B2.7-1 = assay: CCK-8 tumor cell proliferation, Hep3B2.7-1; assay type: cell-based, Human; conditions: Homo sapiens; Table 18, FAK inhibitor based; HEP3B2.7-1; read-out: IC50 inhibiting proliferation of tumor cells, HEP3B2.7-1
Summary of the method: as §1

MM.1S = assay: CCK-8 tumor cell proliferation, MM.1S; assay type: cell-based; conditions: for IC50: Homo sapiens, MM1.S
Summary of the method: as §1

CCRF-CEM = assay: CCK-8 tumor cell proliferation, CCRF-CEM; assay type: cell-based, Human; parameters: IC50 for inhibiting the proliferation of tumor cells, CCRF-CEM: scale not given here; conditions: for IC50: Homo sapiens, CCRF-CEM
Summary of the method: as §1

22RV1 = assay: CCK-8 tumor cell proliferation, 22RV1; parameters: species or system Human; conditions: Table 7, designed based on BTK inhibitors, 96 h
Experimental: as §2, §3

Mino = assay: CCK-8 tumor cell proliferation, Mino; assay type: cell-based, Human; conditions: Table 7, designed based on BTK inhibitors; 72 h
Summary of the method: as §1

MV-4-11 = assay: CCK-8 tumor cell proliferation, MV-4-11; assay type: cell-based, Human; conditions: Table 7, designed based on BTK inhibitors; 72 h
Summary of the method: as §1

MDA-MB-231 = assay: CCK-8 tumor cell proliferation, MDA-MB-231; assay type: cell-based, Human; parameters: IC50 for inhibiting the proliferation of tumor cells, MDA-MB-231: scale not given here; conditions: Table 7, designed based on BTK inhibitors, 96 h
Summary of the method: as §1

THP-1 = assay: CCK-8 tumor cell proliferation, THP-1; assay type: cell-based, Human; conditions: 72 h
Experimental: as §2, §3

Kasumi-1 = assay: CCK-8 tumor cell proliferation, Kasumi-1; assay type: cell-based, Human; conditions: Table 7, designed based on BTK inhibitors; 72 h
Summary of the method: as §1

NCI-H1975 = assay: CCK-8 tumor cell proliferation, NCI-H1975; assay type: cell-based, Human; conditions: Table 7, designed based on BTK inhibitors; 96 h
Summary of the method: as §1

[1] = Table 18, FAK inhibitor based, Vcap, read-out: IC50 inhibiting proliferation of tumor cells, Vcap
[2] = Table 18, FAK inhibitor based, MM.1S, read-out: IC50 inhibiting proliferation of tumor cells, MM.1S
[3] = Table 18, FAK inhibitor based, read-out: IC50 inhibiting proliferation of tumor cells, CCRF-CEM
[4] = Table 7, designed based on BTK inhibitors, 72 h
[5] = Table 11, designed based on EGFR inhibitors, 96 h
[6] = Table 7, designed based on BTK inhibitors, 96 h

CNC(=O)c1ccccc1Nc1cc(Nc2cc(C)c(C3CCN(Cc4cc5c(cc4F)C(=O)N(C4CCC(=O)NC4=O)C5)CC3)cc2OC(C)C)ncc1C(F)(F)F (centres unmarked) [GT-04080, 2-((2-((4-(1-((2-(2,6-dioxopiperidin-3-yl)-6-fluoro-1-oxoisoindolin-5-yl)methyl)piperidin-4-yl)-2-isopropoxy-5-methylphenyl)amino)-5-(trifluoromethyl)pyridin-4-yl)amino)-N-methylbenzamide]
IC50 (SW620): < 50 nM
IC50 (Vcap; [1]): < 50 nM
IC50 (MGC-803): 50 to 100 nM
IC50 (CAL-62): < 50 nM
IC50 (Hep3B2.7-1): < 50 nM
IC50 (MM.1S; [2]): < 50 nM
IC50 (CCRF-CEM; [3]): < 50 nM

Nc1ncnc2c1c(-c1ccc(Oc3ccccc3)cc1)nn2C1CCN(Cc2ccc3c(c2)CN(C2CCC(=O)NC2=O)C3=O)CC1F (centres unmarked) [GT-02652, 3-(5-((4-(4-amino-3-(4-phenoxyphenyl)-1H-pyrazolo[3,4-d]pyrimidin-1-yl)-3-fluoropiperidin-1-yl)methyl)-1-oxoisoindolin-2-yl)piperidine-2,6-dione]
IC50 for inhibiting the proliferation of tumor cells, 22RV1 (22RV1): A+
IC50 for inhibiting the proliferation of tumor cells, Mino (Mino): A+
IC50 for inhibiting the proliferation of tumor cells, MV-4-11 (MV-4-11): A+
IC50 for inhibiting the proliferation of tumor cells, MDA-MB-231 (MDA-MB-231): A+
IC50 for inhibiting the proliferation of tumor cells, MM.1S (MM.1S; [4]): A+

CNC(=O)c1ccccc1Nc1cc(Nc2cc(C)c(N3CCC(N(C)Cc4cc(F)c5c(c4)CN(C4CCC(=O)NC4=O)C5=O)CC3)cc2OC(C)C)ncc1C(F)(F)F (centres unmarked) [GT-04093, 2-((2-((4-(4-(((2-(2,6-dioxopiperidin-3-yl)-7-fluoro-1-oxoisoindolin-5-yl)methyl)(methyl)amino)piperidin-1-yl)-2-isopropoxy-5-methylphenyl)amino)-5-(trifluoromethyl)pyridin-4-yl)amino)-N-methylbenzamide]
IC50 (MGC-803): < 50 nM
IC50 (CAL-62): 50 to 100 nM

CNC(=O)c1ccccc1Nc1cc(Nc2cc(C)c(C3CCN(Cc4ccc5c(c4F)CN(C4CCC(=O)NC4=O)C5=O)CC3)cc2OC(C)C)ncc1C(F)(F)F (centres unmarked) [GT-04079, 2-((2-((4-(1-((2-(2,6-dioxopiperidin-3-yl)-4-fluoro-1-oxoisoindolin-5-yl)methyl)piperidin-4-yl)-2-isopropoxy-5-methylphenyl)amino)-5-(trifluoromethyl)pyridin-4-yl)amino)-N-methylbenzamide]
IC50 (SW620): < 50 nM
IC50 (Vcap; [1]): < 50 nM
IC50 (MGC-803): 100 to 500 nM
IC50 (CAL-62): < 50 nM
IC50 (Hep3B2.7-1): < 50 nM
IC50 (MM.1S; [2]): < 50 nM
IC50 (CCRF-CEM; [3]): < 50 nM

CNC(=O)c1ccccc1Nc1cc(Nc2cc(C)c(N3CCC(N(C)Cc4cc5c(cc4F)C(=O)N(C4CCC(=O)NC4=O)C5)CC3)cc2OC(C)C)ncc1C(F)(F)F (centres unmarked) [GT-04092, 2-((2-((4-(4-(((2-(2,6-dioxopiperidin-3-yl)-6-fluoro-1-oxoisoindolin-5-yl)methyl)(methyl)amino)piperidin-1-yl)-2-isopropoxy-5-methylphenyl)amino)-5-(trifluoromethyl)pyridin-4-yl)amino)-N-methylbenzamide]
IC50 (MGC-803): < 50 nM
IC50 (CAL-62): 100 to 500 nM

C=CC(=O)N1CCC[C@@H](n2nc(-c3ccc(Oc4ccccc4)cc3)c3c(N)ncnc32)C1 [ibrutinib, Ibrutinib, reference compound]
IC50 (22RV1; Homo sapiens, 22Rv1, read-out: IC50 for inhibiting the proliferation of tumor cells, 22RV1): > 10000 nM
IC50 (Vcap; 96 h, Table 7, designed based on BTK inhibitors, 96 h, read-out: IC50 for inhibiting the proliferation of tumor cells, Vcap): > 10000 nM
IC50 (THP-1; Homo sapiens, THP-1, Table 7, designed based on BTK inhibitors, read-out: IC50 for inhibiting the proliferation of tumor cells, THP-1): > 10000 nM
IC50 (MDA-MB-231; Homo sapiens, MDA-MB-231, read-out: IC50 for inhibiting the proliferation of tumor cells, MDA-MB-231): > 10000 nM
IC50 (MM.1S; Table 7, designed based on BTK inhibitors, 72 h, read-out: IC50 for inhibiting the proliferation of tumor cells, MM.1S): > 10000 nM
IC50 (CCRF-CEM; Table 7, designed based on BTK inhibitors, 96 h, read-out: IC50 for inhibiting the proliferation of tumor cells, CCRF-CEM): > 10000 nM

O=C1CCC(N2Cc3cc(CN4CCC(N5CCN(c6ccc(-c7cc(F)c8c(c7)C(=O)N(C(C(=O)Nc7nccs7)c7ncn9c7CCC9)C8)cc6)CC5)C(F)(F)C4)ccc3C2=O)C(=O)N1 (centres unmarked) [GT-04459, 2-(6,7-dihydro-5H-pyrrolo[1,2-c]imidazol-1-yl)-2-(6-(4-(4-(1-((2-(2,6-dioxopiperidin-3-yl)-1-oxoisoindolin-5-yl)methyl)-3,3-difluoropiperidin-4-yl)piperazin-1-yl)phenyl)-4-fluoro-1-oxoisoindolin-2-yl)-N-(thiazol-2-yl)acetamide]
IC50 for inhibiting the proliferation of tumor cells, Vcap (Vcap; [5]): A+
IC50 for inhibiting the proliferation of tumor cells, THP-1 (THP-1; Table 11, designed based on EGFR inhibitors): A+
IC50 for inhibiting the proliferation of tumor cells, CCRF-CEM (CCRF-CEM; [5]): A+

CNC(=O)c1ccccc1Nc1cc(Nc2cc(C)c(N3CCN(Cc4cc5c(cc4F)C(=O)N(C4CCC(=O)NC4=O)C5)CC3)cc2OC(C)C)ncc1C(F)(F)F (centres unmarked) [GT-03942, 2-((2-((4-(4-((2-(2,6-dioxopiperidin-3-yl)-6-fluoro-1-oxoisoindolin-5-yl)methyl)piperazin-1-yl)-2-isopropoxy-5-methylphenyl)amino)-5-(trifluoromethyl)pyridin-4-yl)amino)-N-methylbenzamide]
IC50 (SW620): < 50 nM
IC50 (Vcap; [1]): < 50 nM
IC50 (MGC-803): < 50 nM
IC50 (CAL-62): < 50 nM

CNC(=O)c1ccccc1Nc1cc(Nc2cc(C)c(N3CCC(N(C)Cc4ccc5c(c4)CN(C4CCC(=O)NC4=O)C5=O)CC3)cc2OC(C)C)ncc1C(F)(F)F (centres unmarked) [GT-04090, 2-((2-((4-(4-(((2-(2,6-dioxopiperidin-3-yl)-1-oxoisoindolin-5-yl)methyl)(methyl)amino)piperidin-1-yl)-2-isopropoxy-5-methylphenyl)amino)-5-(trifluoromethyl)pyridin-4-yl)amino)-N-methylbenzamide]
IC50 (MGC-803): < 50 nM
IC50 (CAL-62): 50 to 100 nM

CNC(=O)c1ccccc1Nc1cc(Nc2cc(C)c(N3CCC(N(C)Cc4ccc5c(c4F)CN(C4CCC(=O)NC4=O)C5=O)CC3)cc2OC(C)C)ncc1C(F)(F)F (centres unmarked) [GT-04091, 2-((2-((4-(4-(((2-(2,6-dioxopiperidin-3-yl)-4-fluoro-1-oxoisoindolin-5-yl)methyl)(methyl)amino)piperidin-1-yl)-2-isopropoxy-5-methylphenyl)amino)-5-(trifluoromethyl)pyridin-4-yl)amino)-N-methylbenzamide]
IC50 (MGC-803): 50 to 100 nM
IC50 (CAL-62): < 50 nM

Nc1ncnc2c1c(-c1ccc(Oc3ccccc3)cc1)nn2C1CCN(Cc2ccc3c(c2F)CN(C2CCC(=O)NC2=O)C3=O)CC1 (centres unmarked) [GT-03472, 3-(5-((4-(4-amino-3-(4-phenoxyphenyl)-1H-pyrazolo[3,4-d]pyrimidin-1-yl)piperidin-1-yl)methyl)-4-fluoro-1-oxoisoindolin-2-yl)piperidine-2,6-dione]
IC50 for inhibiting the proliferation of tumor cells, Vcap (Vcap; [6]): A+
IC50 for inhibiting the proliferation of tumor cells, THP-1 (THP-1; Table 7, designed based on BTK inhibitors): A+
IC50 for inhibiting the proliferation of tumor cells, Kasumi-1 (Kasumi-1): A+
IC50 for inhibiting the proliferation of tumor cells, MDA-MB-231 (MDA-MB-231): A+
IC50 for inhibiting the proliferation of tumor cells, MM.1S (MM.1S; [4]): A+
IC50 for inhibiting the proliferation of tumor cells, NCI-H1975 (NCI-H1975): A+
IC50 for inhibiting the proliferation of tumor cells, CCRF-CEM (CCRF-CEM; [6]): A+
